According to PubChem BioAssay AID256 (DTP/NCI, 2004):
Toxic doses and inconclusive results are not listed. Rule for the calls: active = survival T/C of 150% or more; inactive = T/C below 125% in these data.

Test system: CD2F1 mice, L1210 leukemia ip, survival T/C
Experiment: NCI In Vivo Anticancer Drug Screen. Data for tumor model L1210 Leukemia (intraperitoneal) in CD2F1 (CDF1) mice
Conditions: higher = longer survival
Summary of the method: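 Vehicle-treated tumor-bearing mice served as controls (C) for compound-treated mice (T). Reported figure is T divided by C.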

[1] = endpoint: mean survival time, dose: 100.0 mg/kg/injection, schedule: Q01DX009 (ip), vehicle: saline with Tween-80
[2] = endpoint: mean survival time, dose: 200.0 mg/kg/injection, schedule: Q01DX009 (ip), vehicle: saline with Tween-80
[3] = endpoint: mean survival time, dose: 400.0 mg/kg/injection, schedule: Q01DX009 (ip), vehicle: saline with Tween-80
[4] = endpoint: mean survival time, dose: 100.0 mg/kg/injection, schedule: Q04DX003 (ip), vehicle: saline with Tween-80
[5] = endpoint: mean survival time, dose: 200.0 mg/kg/injection, schedule: Q04DX003 (ip), vehicle: saline with Tween-80
[6] = endpoint: mean survival time, dose: 400.0 mg/kg/injection, schedule: Q04DX003 (ip), vehicle: saline with Tween-80

Measured: T/C

COc1cc(NC(=O)Nc2ccc(S(N)(=O)=O)cc2)c(Cl)c(OC)c1
inactive: [1] 95 % of control | [2] 95 % of control | [3] 104 % of control

CCCCCCC(=O)CC(SCC)c1ccccc1Cl (stereo unspecified)
inactive: endpoint: median survival time, dose: 25.0 mg/kg/injection, schedule: Q01DX009 (ip), vehicle: saline with Tween-80 100 % of control | endpoint: median survival time, dose: 50.0 mg/kg/injection, schedule: Q01DX009 (ip), vehicle: saline with Tween-80 104 % of control | endpoint: median survival time, dose: 100.0 mg/kg/injection, schedule: Q01DX009 (ip), vehicle: saline with Tween-80 100 % of control | endpoint: median survival time, dose: 200.0 mg/kg/injection, schedule: Q01DX009 (ip), vehicle: saline with Tween-80 97 % of control | endpoint: median survival time, dose: 400.0 mg/kg/injection, schedule: Q01DX009 (ip), vehicle: saline with Tween-80 98 % of control

C#CCNC1=C(C)C(=O)C2=C(C1=O)[C@H](COC(N)=O)[C@]1(OC)[C@H]3[C@@H](CN21)N3C (stereo partly specified)
inactive: endpoint: mean survival time, dose: 3.0 mg/kg/injection, schedule: Q01DX001 (ip), vehicle: distilled water + Tween-80 97 % of control | endpoint: mean survival time, dose: 6.0 mg/kg/injection, schedule: Q01DX001 (ip), vehicle: distilled water + Tween-80 95 % of control | endpoint: mean survival time, dose: 12.0 mg/kg/injection, schedule: Q01DX001 (ip), vehicle: distilled water + Tween-80 101 % of control | endpoint: mean survival time, dose: 24.0 mg/kg/injection, schedule: Q01DX001 (ip), vehicle: distilled water + Tween-80 110 % of control | endpoint: mean survival time, dose: 48.0 mg/kg/injection, schedule: Q01DX001 (ip), vehicle: distilled water + Tween-80 118 % of control

CC(C)(C)C(=O)O
inactive: endpoint: mean survival time, dose: 100.0 mg/kg/injection, schedule: Q01DX009 (ip), vehicle: saline 107 % of control | endpoint: mean survival time, dose: 100.0 mg/kg/injection, schedule: Q04DX003 (ip), vehicle: saline 89 % of control | endpoint: mean survival time, dose: 200.0 mg/kg/injection, schedule: Q01DX009 (ip), vehicle: saline 94 % of control | endpoint: mean survival time, dose: 200.0 mg/kg/injection, schedule: Q04DX003 (ip), vehicle: saline 92 % of control | endpoint: mean survival time, dose: 400.0 mg/kg/injection, schedule: Q04DX003 (ip), vehicle: saline 93 % of control

Cc1ccccc1CC(C)c1ccccc1 (stereo unspecified)
inactive: endpoint: mean survival time, dose: 50.0 mg/kg/injection, schedule: Q01DX009 (ip), vehicle: saline with Tween-80 101 % of control | [1] 101 % of control | [4] 90 % of control | [2] 90 % of control | [5] 88 % of control

c1ccc(C[N+]23CCN(CC2)CC3)cc1
inactive: endpoint: mean survival time, dose: 12.5 mg/kg/injection, schedule: Q04DX003 (ip), vehicle: saline 98 % of control | endpoint: mean survival time, dose: 25.0 mg/kg/injection, schedule: Q04DX003 (ip), vehicle: saline 98 % of control | endpoint: mean survival time, dose: 50.0 mg/kg/injection, schedule: Q04DX003 (ip), vehicle: saline 101 % of control

CCOC(=O)CCC(NC(=O)c1ccc(N(C=O)CCOC=O)cc1)C(=O)OCC (stereo unspecified)
inactive: [4] 97 % of control | [5] 96 % of control | [6] 96 % of control

CCOS(=O)(=O)CCCCS(=O)(=O)OCC
inactive: endpoint: mean survival time, dose: 10.0 mg/kg/injection, schedule: Q01DX009 (ip), vehicle: Klucel (hydroxypropylcellulose) (HPC) 104 % of control | endpoint: mean survival time, dose: 20.0 mg/kg/injection, schedule: Q01DX009 (ip), vehicle: Klucel (hydroxypropylcellulose) (HPC) 98 % of control | endpoint: mean survival time, dose: 40.0 mg/kg/injection, schedule: Q01DX009 (ip), vehicle: Klucel (hydroxypropylcellulose) (HPC) 107 % of control

CN(Cc1ccccc1)C(=O)C(=O)c1c[nH]c2ccccc12
inactive: [1] 95 % of control | [4] 98 % of control | [2] 89 % of control | [5] 87 % of control | [3] 91 % of control | [6] 90 % of control

COc1ccc(/C(C)=N/N=C(\C)c2ccc(OC)cc2)cc1
inactive: endpoint: mean survival time, dose: 25.0 mg/kg/injection, schedule: Q04DX003 (ip), vehicle: saline with Tween-80 105 % of control | endpoint: mean survival time, dose: 50.0 mg/kg/injection, schedule: Q04DX003 (ip), vehicle: saline with Tween-80 102 % of control | [4] 102 % of control

C=C1[C@@H](C)[C@H]2[C@H](Cc3ccccc3)NC(=O)[C@]23OC(=O)/C=C/[C@H](O)CCC[C@@H](C)C/C=C/[C@H]3[C@@H]1O
inactive: endpoint: mean survival time, dose: 0.5 mg/kg/injection, schedule: Q04DX002 (ip), vehicle: Klucel (hydroxypropylcellulose) (HPC) 100 % of control | endpoint: mean survival time, dose: 1.0 mg/kg/injection, schedule: Q04DX002 (ip), vehicle: Klucel (hydroxypropylcellulose) (HPC) 103 % of control | endpoint: mean survival time, dose: 2.0 mg/kg/injection, schedule: Q04DX002 (ip), vehicle: Klucel (hydroxypropylcellulose) (HPC) 100 % of control | endpoint: mean survival time, dose: 4.0 mg/kg/injection, schedule: Q04DX002 (ip), vehicle: Klucel (hydroxypropylcellulose) (HPC) 103 % of control | endpoint: mean survival time, dose: 8.0 mg/kg/injection, schedule: Q04DX002 (ip), vehicle: Klucel (hydroxypropylcellulose) (HPC) 95 % of control
